Holding throughout (assay type): cell-based
For experiment [1], the system named is Peripheral blood mononuclear cells (PBMC). In words: Respiratory burst (H2O2) in PBMC, DCFH-DA flow cytometry. To be noted: 15 min at 37° C.; granulocytes, monocytes, lymphocytes. The procedure: Experiments were also carried out using 2′,7′-dichlorofluorescein diacetate (DCFH-DA) to measure the production of H2O2.(J P Robinson, Oxidative burst methods, in Handbook of Flow Cytometry Methods, Wiley-Liss Inc, pp147-149, 1993). H2O2 oxidizes the non-fluorescent probe (DCFH-DA) to a fluorescent probe that can then be detected by a flow cytometer. Peripheral blood mononuclear cells (PBMC) were extracted from a donor blood sample by lysis of heparinized blood and used in a suspension of 1×10^6/mL of phosphate buffer, pH 7.3. The cells were then incubated with DCFH-DA (1 μL/mL of 20 mM stock) for 15 minutes to allow it to be taken up and trapped by hydrolysis with cellular esterases. The cells were then stimulated by test compounds for 15 min at 37° C. Controls included in the experiment were unloaded control (cells with no DCFH-DA) and loaded control (cells with DCFH-DA, but no stimulation). These were used to monitor the non-specific oxidation of unstimulated cells. The cells were then analyzed on the flow cytometer (excitation at 488 nm, emission at 525±20 nm), gating each sample for individual cell populations-granulocytes, monocytes and lymphocytes (Table 3).
In general terms: Flow cytometry measures light scatter and fluorescence of single cells or particles in a stream.

For the next experiment, the target named is T1, PKCθ (Homo sapiens, UniProt Q04759).
T1 construct: host or cells: HeLa cells
In words: EGFP-PKC isoform translocation in HeLa cells. To be noted: one hour, TPA 100 ng/mL, bryostatin-1 5 pg/mL, PEP003 2.25 μg/mL (5 μM), PEP005 670 μg/mL (1.5 μM). The procedure: (§1) Five EGFP-PKC isoforms (Clontech) were available for this experiment, enabling the screening of the three predominant PKC families (i.e. classical, novel and atypical PKCs). The members of the various PKC families are α, β, and γ (classical), θ (novel) and ζ (atypical).
(§2) HeLa cells were plated out in a 24-well plate containing coverslips and transfected with PKC isoforms fused to EGFP, using a commercially available effectine-transfection kit (QIAGEN, Pty. Ltd.). Cells were exposed to the transfection reagents for 16-24 hr. Subsequently, transfected cells were treated for one hour with TPA (100 ng/mL), bryostatin-1 (5 pg/mL), PEP003 (2.25 μg/mL; 5 μM) or PEP005 ([…]) 1.5 μM). Following treatment, cells were fixed on coverslips and mounted on glass slides. The slides were subsequently examined visually by fluorescence microscopy, photographed, and over 150 cells were counted/treatment/PKC isoform. Counted cells were classified according to the localisation of the PKC-EGFP fluorescence as either cytoplasmic or plasma membrane using ImagePro™ 4.1 (FIG. 5). […] The number of these cells was also counted. Results are presented as an average and standard deviation of percentages of cells (Table 1).

The target of another experiment is T2, PKCβ (Homo sapiens, UniProt P05771).
T2 construct: host or cells: HeLa cells
In words: EGFP-PKC isoform translocation in HeLa cells. The procedure:
as §1, §2

In another experiment the target is T3, PKCζ (Homo sapiens, UniProt Q05513).
T3 construct: host or cells: HeLa cells
T3 sequence (Q05513 1-592): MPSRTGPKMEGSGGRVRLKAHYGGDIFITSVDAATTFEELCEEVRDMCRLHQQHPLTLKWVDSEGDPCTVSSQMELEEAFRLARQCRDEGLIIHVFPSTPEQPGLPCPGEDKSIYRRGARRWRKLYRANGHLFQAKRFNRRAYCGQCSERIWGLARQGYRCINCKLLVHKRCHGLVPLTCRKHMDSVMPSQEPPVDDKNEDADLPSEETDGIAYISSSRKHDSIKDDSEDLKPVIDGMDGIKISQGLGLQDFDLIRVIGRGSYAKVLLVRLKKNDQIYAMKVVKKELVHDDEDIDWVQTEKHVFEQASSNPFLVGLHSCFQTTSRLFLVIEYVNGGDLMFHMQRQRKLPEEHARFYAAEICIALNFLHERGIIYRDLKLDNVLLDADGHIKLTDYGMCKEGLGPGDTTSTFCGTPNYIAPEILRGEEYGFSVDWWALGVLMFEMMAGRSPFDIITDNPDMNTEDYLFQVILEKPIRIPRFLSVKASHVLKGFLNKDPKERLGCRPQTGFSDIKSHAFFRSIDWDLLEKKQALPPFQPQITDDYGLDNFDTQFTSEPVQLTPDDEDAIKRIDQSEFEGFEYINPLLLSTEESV
The experiment in a line: EGFP-PKC isoform translocation in HeLa cells. To be noted: one hour, TPA 100 ng/mL, bryostatin-1 5 pg/mL, PEP003 2.25 μg/mL (5 μM), PEP005 670 μg/mL (1.5 μM). The procedure: as §1, §2

Experiment [2] has as its system EBV in Burkitt's lymphoma cell lines (MutuI and BL74). In words: EBV activation in Burkitt's lymphoma cell lines (VCA western blot). The procedure:
To ensure that equal amounts of each sample were analyzed, the gels were stained with Coomassie blue and the loadings were adjusted to make them equal. […] Next the PEP003 and PEP004 were assayed on two Burkitt's lymphoma cell lines and an LCL. This time only concentrations of 10^−5 and 10^−7 were used.

Another experiment addresses T4, PKCα (Homo sapiens, UniProt P17252).
T4 construct: host or cells: HeLa cells
To be noted: HeLa. How it is done: as §1
as §2, with “counted.” for “counted. Results are presented as an average and standard deviation of percentages of cells (Table 1).”

The results in this text go back to patent publication US20030195168A1, “Therapeutic agents - III” (priority 2000, published 2003).

T2 sequence (P05771 whole entry, species assumed): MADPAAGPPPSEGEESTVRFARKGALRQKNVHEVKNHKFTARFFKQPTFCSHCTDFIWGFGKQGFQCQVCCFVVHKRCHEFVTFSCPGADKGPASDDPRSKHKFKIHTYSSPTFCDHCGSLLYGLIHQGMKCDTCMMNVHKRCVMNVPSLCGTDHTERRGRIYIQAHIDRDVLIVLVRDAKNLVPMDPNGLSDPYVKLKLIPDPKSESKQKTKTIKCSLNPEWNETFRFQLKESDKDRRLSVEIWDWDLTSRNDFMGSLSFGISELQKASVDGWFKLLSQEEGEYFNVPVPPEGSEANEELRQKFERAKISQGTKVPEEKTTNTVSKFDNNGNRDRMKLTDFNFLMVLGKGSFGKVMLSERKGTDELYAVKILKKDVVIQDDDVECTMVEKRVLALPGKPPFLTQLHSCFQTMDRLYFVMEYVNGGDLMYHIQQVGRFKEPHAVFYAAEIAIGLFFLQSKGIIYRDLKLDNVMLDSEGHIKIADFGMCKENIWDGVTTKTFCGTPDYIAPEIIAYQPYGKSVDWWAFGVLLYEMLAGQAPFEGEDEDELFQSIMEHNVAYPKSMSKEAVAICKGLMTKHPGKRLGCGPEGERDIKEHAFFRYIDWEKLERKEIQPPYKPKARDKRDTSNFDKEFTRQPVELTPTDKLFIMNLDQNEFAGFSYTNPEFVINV
T1 sequence (Q04759 whole entry): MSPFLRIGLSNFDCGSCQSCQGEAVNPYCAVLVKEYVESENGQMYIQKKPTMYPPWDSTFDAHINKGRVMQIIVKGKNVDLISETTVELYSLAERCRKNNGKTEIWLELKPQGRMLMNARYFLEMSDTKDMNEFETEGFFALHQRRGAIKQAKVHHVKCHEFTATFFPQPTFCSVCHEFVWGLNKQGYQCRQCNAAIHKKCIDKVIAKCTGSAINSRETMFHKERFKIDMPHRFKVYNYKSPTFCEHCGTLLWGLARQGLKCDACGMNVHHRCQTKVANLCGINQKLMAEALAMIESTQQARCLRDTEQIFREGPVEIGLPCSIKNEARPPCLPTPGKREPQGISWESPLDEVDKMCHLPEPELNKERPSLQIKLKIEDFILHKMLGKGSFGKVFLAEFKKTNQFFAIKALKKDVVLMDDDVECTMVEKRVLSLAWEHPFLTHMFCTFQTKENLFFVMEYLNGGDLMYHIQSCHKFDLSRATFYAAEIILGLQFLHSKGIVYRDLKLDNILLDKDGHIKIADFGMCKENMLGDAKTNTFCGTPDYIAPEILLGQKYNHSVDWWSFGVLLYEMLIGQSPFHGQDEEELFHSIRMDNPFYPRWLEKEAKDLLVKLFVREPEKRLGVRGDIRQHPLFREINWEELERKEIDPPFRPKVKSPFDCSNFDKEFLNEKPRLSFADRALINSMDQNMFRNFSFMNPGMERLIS

In the case of `CCCCCCCCCCCCCC(=O)O[C@@H]1[C@@H](C)[C@@]2(O)[C@@H](C=C(CO)C[C@]3(O)C(=O)C(C)=C[C@@H]23)C2C(C)(C)[C@@]21OC(C)=O` (single isomer, unassigned) [TPA], the “induction of a respiratory burst (H2O2, DCFH-DA)” value in experiment [1] was “respiratory burst seen”. For the same molecule, on PKCθ, the “translocation of PKCθ” value is reported as “translocated”. The “number of PKCβ transfected cells with Golgi-like fluorescence” value on PKCβ (one hour treatment) is “increase in Golgi-Tike fluorescence”. The “translocation of PKCβ to the plasma membrane” value at PKCβ (one hour, TPA 100 ng/mL, bryostatin-1 5 pg/mL, PEP003 2.25 μg/mL (5 μM), PEP005 670 μg/mL (1.5 μM)) is listed as “translocated from the cytoplasm to the plasma membrane”. Further, the “translocation of PKCζ” value at PKCζ is “fail to induce translocation”. In addition, in experiment [2], the “induction of VCA in MutuI cells” value is “TPA did not”. Further, at PKCα (one hour treatment), the “number of PKCα transfected cells displaying Golgi-like fluorescence” value is listed as “increase in the number of cells displaying Golgi-like fluorescence”. For the same molecule, the “translocation of PKCα to the plasma membrane” value at PKCα (one hour, TPA 100 ng/mL, bryostatin-1 5 pg/mL, PEP003 2.25 μg/mL (5 μM)) is on record as “translocated from the cytoplasm to the plasma membrane”.
